According to publication PMC12073402, “A Selective MAP3K1 Inhibitor Facilitates Discovery of NPM1 as a Member of the Network” (Molecules, 2025):

Tests used:
Test in all cases: KiNativ kinome profiling in PANC-1 lysate
Format in all cases: binding
CDK11, CDK8 = details: 5 µM; Lys2; DLKPANILVMGEGPER
Method in brief: (§1)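 PANC-1 lysates were incubated with 5 μM inhibitor or DMSO, then labeled with a desthiobiotin-ATP acyl-phosphate probe that biotinylates conserved kinase lysines. Tryptic peptides were streptavidin-enriched and quantified by LC-MS/MS, reported as % change in MS signal from duplicate treated and duplicate control samples.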

JAK1 domain1 = molecular target: T1, JAK1 domain1 (Homo sapiens, UniProt P23458); details: ATP Loop
T1 construct: we opted to conduct a kinome screen (KiNativ) in PANC-1 cell lysates; endogenous in cells; host or cells: PANC-1 cell lysate
Method in brief: as §1

DLK = molecular target: T2, DLK (Homo sapiens, UniProt Q12852); details: Lys2
T2 construct: endogenous in cells; host or cells: PANC-1 lysate
Method in brief: as §1

MARK4 = molecular target: T3, MARK4 (Homo sapiens, UniProt Q96L34)
T3 construct: endogenous in cells; host or cells: PANC-1
T3 sequence (Q96L34 whole entry): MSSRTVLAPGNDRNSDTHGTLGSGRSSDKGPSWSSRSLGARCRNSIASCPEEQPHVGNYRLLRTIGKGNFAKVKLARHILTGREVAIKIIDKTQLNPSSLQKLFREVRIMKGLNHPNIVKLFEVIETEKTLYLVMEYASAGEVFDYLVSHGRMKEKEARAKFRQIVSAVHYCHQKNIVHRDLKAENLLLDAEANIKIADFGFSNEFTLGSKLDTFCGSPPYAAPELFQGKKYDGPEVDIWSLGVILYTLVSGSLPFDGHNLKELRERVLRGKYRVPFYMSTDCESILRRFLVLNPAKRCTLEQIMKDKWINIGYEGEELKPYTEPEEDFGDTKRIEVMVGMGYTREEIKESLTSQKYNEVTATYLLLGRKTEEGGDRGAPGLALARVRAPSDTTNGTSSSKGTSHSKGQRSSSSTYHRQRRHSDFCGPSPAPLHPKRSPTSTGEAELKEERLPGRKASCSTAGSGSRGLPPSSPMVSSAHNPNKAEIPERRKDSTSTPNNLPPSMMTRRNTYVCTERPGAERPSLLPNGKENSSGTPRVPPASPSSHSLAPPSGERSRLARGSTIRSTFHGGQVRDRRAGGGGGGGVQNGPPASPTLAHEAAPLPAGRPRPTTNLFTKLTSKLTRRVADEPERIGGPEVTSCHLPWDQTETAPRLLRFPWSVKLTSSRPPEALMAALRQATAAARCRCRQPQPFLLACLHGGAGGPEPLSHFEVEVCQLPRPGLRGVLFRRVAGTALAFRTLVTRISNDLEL
Method in brief: as §1

SIK = molecular target: T4, SIK (Homo sapiens, UniProt P57059); details: Lys1
T4 construct: endogenous in cells; host or cells: PANC-1 cell lysate
Method in brief: as §1

ACK = molecular target: T5, ACK (Homo sapiens, UniProt Q07912)
T5 construct: endogenous in cells; host or cells: PANC-1 cell lysate
T5 sequence (Q07912 whole entry): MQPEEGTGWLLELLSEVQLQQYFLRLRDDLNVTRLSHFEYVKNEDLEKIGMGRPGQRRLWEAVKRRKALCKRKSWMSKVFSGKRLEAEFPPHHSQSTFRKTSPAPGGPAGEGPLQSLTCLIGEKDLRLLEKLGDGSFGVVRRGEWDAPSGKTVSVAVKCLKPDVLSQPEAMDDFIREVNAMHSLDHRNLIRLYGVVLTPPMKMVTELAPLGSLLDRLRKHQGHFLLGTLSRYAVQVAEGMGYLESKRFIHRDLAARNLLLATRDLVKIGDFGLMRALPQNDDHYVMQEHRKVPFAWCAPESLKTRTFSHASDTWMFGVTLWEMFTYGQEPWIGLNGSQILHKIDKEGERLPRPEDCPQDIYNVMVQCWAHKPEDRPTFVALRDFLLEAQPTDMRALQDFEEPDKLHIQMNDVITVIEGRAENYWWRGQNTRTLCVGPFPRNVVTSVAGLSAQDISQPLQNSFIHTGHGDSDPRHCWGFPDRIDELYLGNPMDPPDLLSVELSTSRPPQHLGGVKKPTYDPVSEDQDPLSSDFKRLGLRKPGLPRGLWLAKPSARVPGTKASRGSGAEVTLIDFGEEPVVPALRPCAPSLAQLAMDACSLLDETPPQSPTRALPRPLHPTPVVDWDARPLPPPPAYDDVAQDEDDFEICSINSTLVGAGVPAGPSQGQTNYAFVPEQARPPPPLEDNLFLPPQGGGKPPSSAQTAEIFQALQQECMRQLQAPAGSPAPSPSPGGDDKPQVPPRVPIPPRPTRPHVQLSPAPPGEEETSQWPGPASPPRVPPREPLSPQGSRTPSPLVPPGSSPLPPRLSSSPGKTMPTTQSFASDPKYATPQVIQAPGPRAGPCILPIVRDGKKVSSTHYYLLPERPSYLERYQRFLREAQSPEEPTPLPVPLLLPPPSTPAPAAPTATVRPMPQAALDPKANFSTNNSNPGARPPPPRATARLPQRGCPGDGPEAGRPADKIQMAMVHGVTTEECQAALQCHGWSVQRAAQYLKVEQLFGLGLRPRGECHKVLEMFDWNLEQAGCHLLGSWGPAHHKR
Method in brief: as §1

CaMK2g = molecular target: T6, CaMK2g (Homo sapiens, UniProt Q13555); details: Lys1
T6 construct: endogenous in cells; host or cells: PANC-1 cell lysate
Method in brief: as §1

EphB4 = molecular target: T7, EphB4 (Homo sapiens, UniProt P54760); details: ATP Loop
T7 construct: endogenous in cells; host or cells: PANC-1 lysate
Method in brief: as §1

DCAMKL2 = molecular target: T8, DCAMKL2 (Homo sapiens, UniProt Q8N568); details: Lys2
T8 construct: endogenous in cells; host or cells: PANC-1 lysate
Method in brief: as §1

TBK1 = molecular target: T9, TBK1 (Homo sapiens, UniProt Q9UHD2); details: Lys1
T9 construct: endogenous in cells; host or cells: PANC-1 cell lysate
Method in brief: as §1

CaMK1a = molecular target: T10, CaMK1a (Homo sapiens, UniProt Q14012); details: Lys1
T10 construct: endogenous in cells; host or cells: PANC-1 cell lysate
Method in brief: as §1

CK1g1, CK1g2, CK1g3 = details: 5 µM; ATP Loop; KIGCGNFGELR
Method in brief: as §1

YANK3 = molecular target: T11, YANK3 (Homo sapiens, UniProt Q86UX6); details: Lys2
T11 construct: endogenous in cells; host or cells: PANC-1 cell lysate
Method in brief: as §1

MARK1, MARK2 = details: 5 µM; Lys1; EVAVKIIDK
Method in brief: as §1

MAP3K4 = molecular target: T12, MAP3K4 (Homo sapiens, UniProt Q9Y6R4)
T12 construct: endogenous in cells; host or cells: PANC-1 cell lysate
T12 sequence (Q9Y6R4 whole entry): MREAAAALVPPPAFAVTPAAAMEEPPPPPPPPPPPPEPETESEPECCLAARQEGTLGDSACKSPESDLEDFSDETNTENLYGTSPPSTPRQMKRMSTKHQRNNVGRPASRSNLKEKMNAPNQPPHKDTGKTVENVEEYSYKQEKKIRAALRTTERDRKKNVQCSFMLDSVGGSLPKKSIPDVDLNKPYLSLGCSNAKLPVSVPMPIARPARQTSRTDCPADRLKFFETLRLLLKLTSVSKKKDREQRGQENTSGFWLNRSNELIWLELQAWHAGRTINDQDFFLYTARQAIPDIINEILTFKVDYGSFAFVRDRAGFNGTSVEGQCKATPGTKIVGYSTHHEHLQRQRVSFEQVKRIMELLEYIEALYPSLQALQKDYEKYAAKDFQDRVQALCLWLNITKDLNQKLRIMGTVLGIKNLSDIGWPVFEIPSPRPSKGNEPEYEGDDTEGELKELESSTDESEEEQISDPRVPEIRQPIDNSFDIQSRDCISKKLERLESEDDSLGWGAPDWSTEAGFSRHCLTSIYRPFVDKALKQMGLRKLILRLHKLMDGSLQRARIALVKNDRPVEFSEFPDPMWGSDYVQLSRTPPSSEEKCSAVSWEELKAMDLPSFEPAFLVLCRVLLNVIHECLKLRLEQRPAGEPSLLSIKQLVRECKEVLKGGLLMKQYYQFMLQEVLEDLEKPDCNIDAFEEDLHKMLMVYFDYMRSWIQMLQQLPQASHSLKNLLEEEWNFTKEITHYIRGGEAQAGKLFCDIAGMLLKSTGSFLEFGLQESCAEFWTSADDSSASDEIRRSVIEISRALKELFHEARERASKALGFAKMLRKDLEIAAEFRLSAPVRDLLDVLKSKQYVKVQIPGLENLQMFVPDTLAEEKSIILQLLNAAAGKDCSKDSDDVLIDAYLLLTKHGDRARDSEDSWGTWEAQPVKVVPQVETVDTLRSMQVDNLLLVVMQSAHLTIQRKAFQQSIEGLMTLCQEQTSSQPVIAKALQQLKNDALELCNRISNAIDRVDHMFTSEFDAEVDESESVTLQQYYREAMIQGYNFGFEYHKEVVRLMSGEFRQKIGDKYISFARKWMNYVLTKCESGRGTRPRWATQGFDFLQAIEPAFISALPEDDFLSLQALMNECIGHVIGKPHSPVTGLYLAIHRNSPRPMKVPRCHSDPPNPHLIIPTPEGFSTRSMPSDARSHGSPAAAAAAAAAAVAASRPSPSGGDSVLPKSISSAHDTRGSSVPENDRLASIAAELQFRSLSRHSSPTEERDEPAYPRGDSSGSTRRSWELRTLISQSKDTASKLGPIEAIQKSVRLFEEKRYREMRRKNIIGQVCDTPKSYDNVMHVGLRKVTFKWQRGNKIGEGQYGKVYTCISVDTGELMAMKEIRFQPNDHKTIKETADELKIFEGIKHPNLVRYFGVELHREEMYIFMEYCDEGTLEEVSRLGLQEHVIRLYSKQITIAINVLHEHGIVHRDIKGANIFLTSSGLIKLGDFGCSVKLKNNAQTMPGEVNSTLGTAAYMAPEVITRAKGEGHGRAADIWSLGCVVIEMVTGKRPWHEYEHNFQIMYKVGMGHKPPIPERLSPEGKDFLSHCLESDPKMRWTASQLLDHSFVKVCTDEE
Method in brief: as §1

[1] = test system: MSK1 domain1, MSK2 domain1; details: 5 µM; ATP Loop; VLGTGAYGKVFLVR
Method in brief: as §1

MARK2 = molecular target: T13, MARK2 (Homo sapiens, UniProt Q7KZI7); details: Lys1
T13 construct: endogenous in cells; host or cells: PANC-1 cell lysate
Method in brief: as §1

[2] = test system: ZC1/HGK, ZC2/TNIK, ZC3/MINK; details: 5 µM; Lys2; DIKGQNVLLTENAEVK
Method in brief: as §1

MAP2K5 = molecular target: T14, MAP2K5 (Homo sapiens, UniProt Q13163); details: Lys2
T14 construct: endogenous in cells; host or cells: PANC-1 cell lysate
Method in brief: as §1

PKD2 = molecular target: T15, PKD2 (Homo sapiens, UniProt Q9BZL6); details: Lys1
T15 construct: endogenous in cells; host or cells: PANC-1 cell lysate
Method in brief: as §1

PEK = molecular target: T16, PEK (Homo sapiens, UniProt Q9NZJ5); details: Lys2
T16 construct: endogenous in cells; host or cells: PANC-1 cell lysate
Method in brief: as §1

p38a = molecular target: T17, p38a (Homo sapiens, UniProt Q16539)
T17 construct: endogenous in cells; host or cells: PANC-1 cell lysate
Method in brief: as §1

CaMK1d = molecular target: T18, CaMK1d (Homo sapiens, UniProt Q8IU85)
T18 construct: endogenous in cells; host or cells: PANC-1 cell lysate
T18 sequence (Q8IU85 whole entry): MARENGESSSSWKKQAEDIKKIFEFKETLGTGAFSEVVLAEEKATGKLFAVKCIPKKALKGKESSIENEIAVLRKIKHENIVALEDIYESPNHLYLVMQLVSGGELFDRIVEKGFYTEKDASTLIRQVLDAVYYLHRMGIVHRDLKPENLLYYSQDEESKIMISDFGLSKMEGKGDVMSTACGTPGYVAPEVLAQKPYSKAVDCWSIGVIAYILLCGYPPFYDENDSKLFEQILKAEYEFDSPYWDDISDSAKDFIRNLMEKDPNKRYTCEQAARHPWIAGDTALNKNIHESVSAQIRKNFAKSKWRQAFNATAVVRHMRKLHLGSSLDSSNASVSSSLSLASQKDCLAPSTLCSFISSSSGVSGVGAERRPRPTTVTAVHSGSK
Method in brief: as §1

SRPK1, SRPK2 = details: 5 µM; Lys1; FVAMKVVK
Method in brief: as §1

EGFR, EGFR-L858R = molecular target: T19, EGFR, EGFR-L858R (Homo sapiens, UniProt P00533)
T19 construct: endogenous in cells; host or cells: PANC-1 lysate
T19 sequence (P00533 25-1210 L858R): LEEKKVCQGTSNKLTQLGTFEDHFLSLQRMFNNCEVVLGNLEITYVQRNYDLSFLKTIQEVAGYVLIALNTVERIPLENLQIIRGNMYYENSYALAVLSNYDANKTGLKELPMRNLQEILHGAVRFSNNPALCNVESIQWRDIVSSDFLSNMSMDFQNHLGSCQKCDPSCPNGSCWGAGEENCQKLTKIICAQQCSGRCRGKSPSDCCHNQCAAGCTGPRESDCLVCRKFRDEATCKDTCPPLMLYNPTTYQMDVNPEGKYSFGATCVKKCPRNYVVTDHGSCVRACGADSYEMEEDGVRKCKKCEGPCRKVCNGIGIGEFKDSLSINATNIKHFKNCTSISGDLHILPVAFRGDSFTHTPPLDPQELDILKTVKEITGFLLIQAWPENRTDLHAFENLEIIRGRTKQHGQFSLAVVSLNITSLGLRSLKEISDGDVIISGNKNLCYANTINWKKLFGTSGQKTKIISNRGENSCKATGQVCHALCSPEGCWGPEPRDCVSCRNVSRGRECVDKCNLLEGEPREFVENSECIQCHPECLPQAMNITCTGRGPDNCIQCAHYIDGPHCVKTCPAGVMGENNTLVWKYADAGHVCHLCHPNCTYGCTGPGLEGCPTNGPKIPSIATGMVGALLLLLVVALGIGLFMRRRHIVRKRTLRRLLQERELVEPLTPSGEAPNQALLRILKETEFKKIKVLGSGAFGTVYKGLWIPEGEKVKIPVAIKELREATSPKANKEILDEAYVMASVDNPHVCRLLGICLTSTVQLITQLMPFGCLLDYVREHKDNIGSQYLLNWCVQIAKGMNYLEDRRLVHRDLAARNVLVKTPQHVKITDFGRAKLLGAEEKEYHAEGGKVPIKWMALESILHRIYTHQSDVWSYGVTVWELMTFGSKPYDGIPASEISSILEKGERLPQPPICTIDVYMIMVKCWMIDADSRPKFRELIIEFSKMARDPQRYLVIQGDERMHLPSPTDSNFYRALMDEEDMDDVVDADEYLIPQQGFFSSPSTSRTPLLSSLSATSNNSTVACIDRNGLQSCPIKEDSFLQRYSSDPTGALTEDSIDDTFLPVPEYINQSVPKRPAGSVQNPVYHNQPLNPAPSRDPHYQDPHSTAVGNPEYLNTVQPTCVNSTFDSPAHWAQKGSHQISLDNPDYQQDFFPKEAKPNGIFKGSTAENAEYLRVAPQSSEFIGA
Method in brief: as §1

MELK = molecular target: T20, MELK (Homo sapiens, UniProt Q14680); details: Lys2
T20 construct: endogenous in cells; host or cells: PANC-1
Method in brief: as §1

For `Cn1cc(-c2cnc3ccc(NC(=O)Nc4ccc(F)c(C(F)(F)F)c4)cc3n2)cn1` [51-106, 1-(4-Fluoro-3-(trifluoromethyl)phenyl)-3-(3-(1-methyl-1H-pyrazol-4-yl)quinoxalin-6-yl)urea], the “% Inhibition” value (CDK11, CDK8) was 15.4%, the inhibition at 5 µM (JAK1 domain1) was ≤ 0% and the inhibition at 5 µM (DLK) was 5.9%. For the same compound, the inhibition at 5 µM (MARK4; Lys1, EVAIKIIDKTQLNPSSLQK) was ≤ 0%, the inhibition at 5 µM (MARK4; Lys2, DLKAENLLLDAEANIK) was 10.3% and the inhibition at 5 µM (SIK) was 23.3%. The “% Inhibition” value (ACK; 5 µM, Activation Loop, KVPFAWCAPESLK) was “NB (NB = No Binding (≤ 0))”, the inhibition at 5 µM (ACK; Lys1, […]) was ≤ 0% and the inhibition at 5 µM (CaMK2g) was 7.1%. The inhibition at 5 µM (EphB4) was 1.6%, the inhibition at 5 µM (DCAMKL2) was ≤ 0% and the inhibition at 5 µM (TBK1) was 5.7%. For the same compound, the inhibition at 5 µM (CaMK1a) was ≤ 0%, the “% Inhibition” value (CK1g1, CK1g2, CK1g3) was 11.7% and the inhibition at 5 µM (YANK3) was ≤ 0%. The “% Inhibition” value (MARK1, MARK2) was “NB (NB = No Binding (≤ 0))”, the inhibition at 5 µM (MAP3K4; Lys1, VYTCISVDTGELMAMKEIR) was 8.6% and the inhibition at 5 µM (MAP3K4; Lys2, DIKGANIFLTSSGLIK) was 7.1%. For the same compound, the “% Inhibition” value [1] was 0.1%, the inhibition at 5 µM (MARK2) was 5% and the “% Inhibition” value [2] was “NB (NB = No Binding (≤ 0))”. The inhibition at 5 µM (MAP2K5) was 3%, the inhibition at 5 µM (PKD2) was 10.6% and the inhibition at 5 µM (PEK) was 10.9%. For the same compound, the inhibition at 5 µM (p38a; Lys2, DLKPSNLAVNEDCELK) was ≤ 0%, the inhibition at 5 µM (p38a; Other, QELNKTIWEVPER) was 7.5% and the inhibition at 5 µM (CaMK1d; Lys1, LFAVKCIPK) was 30.3%. The inhibition at 5 µM (CaMK1d; Lys2, DLKPENLLYYSQDEESK) was ≤ 0%, the “% Inhibition” value (SRPK1, SRPK2) was “NB (NB = No Binding (≤ 0))” and the inhibition at 5 µM (EGFR, EGFR-L858R; ATP Loop, LLGAEEKEYHAEGGKVPIK) was ≤ 0%. The inhibition at 5 µM (EGFR, EGFR-L858R; Lys1, IPVAIKELR) was 5.5% and the inhibition at 5 µM (MELK) was ≤ 0%.
